Experimental data from the NIST ThermoML archive (doi:10.1016/j.jct.2010.08.019).

Assay: refractive index (Na D-line) (dimensionless); xn = mol fraction of the nth substance listed
Details: 101 kPa, Liquid, Standard Abbe refractometry

C1CCOCC1 [tetrahydropyran] + CC(C)CC(C)(C)C
Details | refractive index
293.15 K, x1 = 0.0502 | 1.39259
293.15 K, x1 = 0.1 | 1.39359
293.15 K, x1 = 0.1499 | 1.39461
293.15 K, x1 = 0.2 | 1.39567
293.15 K, x1 = 0.25 | 1.39677
293.15 K, x1 = 0.3 | 1.39792
293.15 K, x1 = 0.35 | 1.39911
293.15 K, x1 = 0.4 | 1.40036
293.15 K, x1 = 0.4498 | 1.40167
293.15 K, x1 = 0.5001 | 1.40303
293.15 K, x1 = 0.5501 | 1.40446
293.15 K, x1 = 0.5999 | 1.40595
293.15 K, x1 = 0.6501 | 1.40753
293.15 K, x1 = 0.6999 | 1.40917
293.15 K, x1 = 0.75 | 1.41092
293.15 K, x1 = 0.8 | 1.41274
293.15 K, x1 = 0.8501 | 1.41468
293.15 K, x1 = 0.9 | 1.4167
293.15 K, x1 = 0.95 | 1.41885
293.15 K, x1 = 1 | 1.42109
303.15 K, x1 = 0.0502 | 1.38756
303.15 K, x1 = 0.1 | 1.38853
303.15 K, x1 = 0.1499 | 1.38953
303.15 K, x1 = 0.2 | 1.39057
303.15 K, x1 = 0.25 | 1.39166
303.15 K, x1 = 0.2999 | 1.39279
303.15 K, x1 = 0.3498 | 1.39399
303.15 K, x1 = 0.3998 | 1.39524
303.15 K, x1 = 0.4498 | 1.39654
303.15 K, x1 = 0.5001 | 1.3979
303.15 K, x1 = 0.5501 | 1.39932
303.15 K, x1 = 0.5999 | 1.40081
303.15 K, x1 = 0.6501 | 1.40239
303.15 K, x1 = 0.6999 | 1.40403
303.15 K, x1 = 0.75 | 1.40577
303.15 K, x1 = 0.8 | 1.4076
303.15 K, x1 = 0.8501 | 1.40954
303.15 K, x1 = 0.9 | 1.41158
303.15 K, x1 = 0.95 | 1.41373
303.15 K, x1 = 1 | 1.41599
313.15 K, x1 = 0.0501 | 1.38237
313.15 K, x1 = 0.1002 | 1.38334
313.15 K, x1 = 0.1501 | 1.38433
313.15 K, x1 = 0.1999 | 1.38537
313.15 K, x1 = 0.2501 | 1.38645
313.15 K, x1 = 0.3 | 1.38759
313.15 K, x1 = 0.3499 | 1.38877
313.15 K, x1 = 0.4002 | 1.39001
313.15 K, x1 = 0.4502 | 1.39131
313.15 K, x1 = 0.4999 | 1.39266
313.15 K, x1 = 0.5499 | 1.39409
313.15 K, x1 = 0.6 | 1.39559
313.15 K, x1 = 0.65 | 1.39716
313.15 K, x1 = 0.6998 | 1.39881
313.15 K, x1 = 0.75 | 1.40055
313.15 K, x1 = 0.8001 | 1.40239
313.15 K, x1 = 0.8501 | 1.40432
313.15 K, x1 = 0.9001 | 1.40638
313.15 K, x1 = 0.9498 | 1.40857
313.15 K, x1 = 1 | 1.41092
323.15 K, x1 = 0.0501 | 1.37719
323.15 K, x1 = 0.1002 | 1.37814
323.15 K, x1 = 0.1501 | 1.37913
323.15 K, x1 = 0.1999 | 1.38015
323.15 K, x1 = 0.2501 | 1.38122
323.15 K, x1 = 0.3 | 1.38233
323.15 K, x1 = 0.3499 | 1.38349
323.15 K, x1 = 0.4002 | 1.38471
323.15 K, x1 = 0.45 | 1.38599
323.15 K, x1 = 0.5002 | 1.38733
323.15 K, x1 = 0.55 | 1.38874
323.15 K, x1 = 0.5997 | 1.39022
323.15 K, x1 = 0.65 | 1.39179
323.15 K, x1 = 0.6998 | 1.39343
323.15 K, x1 = 0.75 | 1.39518
323.15 K, x1 = 0.8001 | 1.39701
323.15 K, x1 = 0.8501 | 1.39895
323.15 K, x1 = 0.9002 | 1.40101
323.15 K, x1 = 0.95 | 1.40319
323.15 K, x1 = 1 | 1.40554

CC(C)CC(C)(C)C [2,2,4-trimethylpentane] + CC(C)O
Details | refractive index
293.15 K, x2 = 0.2501 | 1.41104
293.15 K, x2 = 0.3003 | 1.40906
293.15 K, x2 = 0.3502 | 1.40701
293.15 K, x2 = 0.4004 | 1.40497
293.15 K, x2 = 0.4502 | 1.4029
293.15 K, x2 = 0.5001 | 1.40079
293.15 K, x2 = 0.55 | 1.39865
293.15 K, x2 = 0.5998 | 1.39647
293.15 K, x2 = 0.6502 | 1.39422
293.15 K, x2 = 0.7002 | 1.39194
293.15 K, x2 = 0.7499 | 1.38965
293.15 K, x2 = 0.7999 | 1.38727
293.15 K, x2 = 0.85 | 1.38486
293.15 K, x2 = 0.8999 | 1.38241
293.15 K, x2 = 0.95 | 1.37993
303.15 K, x2 = 0 | 1.41599
303.15 K, x2 = 0.05 | 1.41398
303.15 K, x2 = 0.1 | 1.41198
303.15 K, x2 = 0.1499 | 1.41
303.15 K, x2 = 0.2004 | 1.408
303.15 K, x2 = 0.2497 | 1.40602
303.15 K, x2 = 0.3 | 1.40405
303.15 K, x2 = 0.3499 | 1.40202
303.15 K, x2 = 0.4008 | 1.40001
303.15 K, x2 = 0.4503 | 1.39797
303.15 K, x2 = 0.5 | 1.3959
303.15 K, x2 = 0.5498 | 1.3938
303.15 K, x2 = 0.6001 | 1.39166
303.15 K, x2 = 0.65 | 1.38947
303.15 K, x2 = 0.7001 | 1.38724
303.15 K, x2 = 0.7495 | 1.38498
303.15 K, x2 = 0.7989 | 1.38267
303.15 K, x2 = 0.8499 | 1.3803
303.15 K, x2 = 0.8997 | 1.37788
303.15 K, x2 = 0.95 | 1.37545
313.15 K, x2 = 0 | 1.41092
313.15 K, x2 = 0.0499 | 1.40889
313.15 K, x2 = 0.1001 | 1.40693
313.15 K, x2 = 0.1503 | 1.40494
313.15 K, x2 = 0.2001 | 1.40299
313.15 K, x2 = 0.2499 | 1.40102
313.15 K, x2 = 0.3003 | 1.39906
313.15 K, x2 = 0.3497 | 1.39707
313.15 K, x2 = 0.4 | 1.39507
313.15 K, x2 = 0.4502 | 1.39301
313.15 K, x2 = 0.5005 | 1.39098
313.15 K, x2 = 0.5499 | 1.38891
313.15 K, x2 = 0.6 | 1.38681
313.15 K, x2 = 0.6498 | 1.38469
313.15 K, x2 = 0.6999 | 1.38251
313.15 K, x2 = 0.75 | 1.38031
313.15 K, x2 = 0.7998 | 1.37808
313.15 K, x2 = 0.8498 | 1.37578
313.15 K, x2 = 0.8999 | 1.37345
313.15 K, x2 = 0.9499 | 1.37107
323.15 K, x2 = 0 | 1.40554
323.15 K, x2 = 0.0501 | 1.40351
323.15 K, x2 = 0.1 | 1.40154
323.15 K, x2 = 0.15 | 1.39952
323.15 K, x2 = 0.1998 | 1.39757
323.15 K, x2 = 0.25 | 1.39566
323.15 K, x2 = 0.3 | 1.39368
323.15 K, x2 = 0.35 | 1.39173
323.15 K, x2 = 0.4 | 1.38974
323.15 K, x2 = 0.4499 | 1.38775
323.15 K, x2 = 0.5 | 1.38572
323.15 K, x2 = 0.5501 | 1.38366
323.15 K, x2 = 0.6 | 1.38161
323.15 K, x2 = 0.65 | 1.37953
323.15 K, x2 = 0.7 | 1.37741
323.15 K, x2 = 0.7499 | 1.37522
323.15 K, x2 = 0.7999 | 1.37303
323.15 K, x2 = 0.85 | 1.3708
323.15 K, x2 = 0.9 | 1.36851
323.15 K, x2 = 0.95 | 1.36617
